Assay results taken from patent US20020026053A1, “Novel 3-(substituted) -2- indolinones compounds and use thereof as inhibitors of protein kinase activity” (priority 1997, published 2002).

Tests used:
PDGF-R = PDGF-R Assay (cellular ELISA, U1242 cells); type: cell-based; design: concentration or dose not given beside the values
Description: The cellular/catalytic assays described herein are performed in an ELISA format. The general procedure is as follows: a compound is introduced to cells expressing the test kinase, either naturally or recombinantly, for a selected period of time after which, if the test kinase is a receptor, a ligand known to activate the receptor is added. The cells are lysed and the lysate is transferred to the wells of an ELISA plate previously coated with a specific antibody recognizing the substrate of the enzymatic phosphorylation reaction. Non-substrate components of the cell lysate are washed away and the amount of phosphorylation on the substrate is detected with an antibody specifically recognizing phosphotyrosine compared with control cells that were not contacted with a test compound.
All cell culture media, glutamine, and fetal bovine serum can be purchased from Gibco Life Technologies (Grand Island, N.Y.) unless otherwise specified. All cells are grown in a humid atmosphere of 90-95% air and 5-10% CO2 at 37° C. All cell lines are routinely subcultured twice a week and are negative for mycoplasma as determined by the Mycotect method (Gibco).
For ELISA assays, cells (U1242, obtained from Joseph Schlessinger, NYU) are grown to 80-90% confluency in growth medium (MEM with 10% FBS, NEAA, 1 mM NaPyr and 2 mM GLN) and seeded in 96-well tissue culture plates in 0.5% serum at 25,000 to 30,000 cells per well. After overnight incubation in 0.5% serum-containing medium, cells are changed to serum-free medium and treated with test compound for 2 hr in a 5% CO2, 37° C. incubator. Cells are then stimulated with ligand for 5-10 minute followed by lysis with HNTG (20 mM Hepes, 150 mM NaCl, 10% glycerol, 5 mM EDTA, 5 mM Na3VO4, 0.2% Triton X-100, and 2 mM NaPyr). Cell lysates (0.5 mg/well in PBS) are transferred to ELISA plates previously coated with receptor-specific antibody and which had been blocked with 5% milk in TBST (50 mM Tris-HCl pH 7.2, 150 mM NaCl and 0.1% Triton X-100) at room temperature for 30 min. Lysates are incubated with shaking for 1 hour at room temperature. The plates are washed with TBST four times and then incubated with polyclonal anti-phosphotyrosine antibody at room temperature for 30 minutes. Excess anti-phosphotyrosine antibody is removed by rinsing the plate with TBST four times. Goat anti-rabbit IgG antibody is added to the ELISA plate for 30 min at room temperature followed by rinsing with TBST four more times. ABTS (100 mM citric acid, 250 mM Na2HPO4 and 0.5 mg/mL 2,2′-azino-bis (3-ethylbenzthiazoline-6-sulfonic acid)) plus H2O2 ([…] 30% H2O2 to 10 ml ABTS) is added to the ELISA plates to start color development. Absorbance at 410 nm with a reference wavelength of 630 nm is recorded about 15 to 30 min after ABTS addition.

EGFR = molecular target: T1, EGFR (Homo sapiens, UniProt P00533); test: Biochemical EGFR Assay; design: concentration or dose not given beside the values
T1 construct: endogenous in cells; host or cells: A431 cells (lysate, captured with SUMO1 anti-EGFR antibody)
T1 sequence (P00533 25-1210): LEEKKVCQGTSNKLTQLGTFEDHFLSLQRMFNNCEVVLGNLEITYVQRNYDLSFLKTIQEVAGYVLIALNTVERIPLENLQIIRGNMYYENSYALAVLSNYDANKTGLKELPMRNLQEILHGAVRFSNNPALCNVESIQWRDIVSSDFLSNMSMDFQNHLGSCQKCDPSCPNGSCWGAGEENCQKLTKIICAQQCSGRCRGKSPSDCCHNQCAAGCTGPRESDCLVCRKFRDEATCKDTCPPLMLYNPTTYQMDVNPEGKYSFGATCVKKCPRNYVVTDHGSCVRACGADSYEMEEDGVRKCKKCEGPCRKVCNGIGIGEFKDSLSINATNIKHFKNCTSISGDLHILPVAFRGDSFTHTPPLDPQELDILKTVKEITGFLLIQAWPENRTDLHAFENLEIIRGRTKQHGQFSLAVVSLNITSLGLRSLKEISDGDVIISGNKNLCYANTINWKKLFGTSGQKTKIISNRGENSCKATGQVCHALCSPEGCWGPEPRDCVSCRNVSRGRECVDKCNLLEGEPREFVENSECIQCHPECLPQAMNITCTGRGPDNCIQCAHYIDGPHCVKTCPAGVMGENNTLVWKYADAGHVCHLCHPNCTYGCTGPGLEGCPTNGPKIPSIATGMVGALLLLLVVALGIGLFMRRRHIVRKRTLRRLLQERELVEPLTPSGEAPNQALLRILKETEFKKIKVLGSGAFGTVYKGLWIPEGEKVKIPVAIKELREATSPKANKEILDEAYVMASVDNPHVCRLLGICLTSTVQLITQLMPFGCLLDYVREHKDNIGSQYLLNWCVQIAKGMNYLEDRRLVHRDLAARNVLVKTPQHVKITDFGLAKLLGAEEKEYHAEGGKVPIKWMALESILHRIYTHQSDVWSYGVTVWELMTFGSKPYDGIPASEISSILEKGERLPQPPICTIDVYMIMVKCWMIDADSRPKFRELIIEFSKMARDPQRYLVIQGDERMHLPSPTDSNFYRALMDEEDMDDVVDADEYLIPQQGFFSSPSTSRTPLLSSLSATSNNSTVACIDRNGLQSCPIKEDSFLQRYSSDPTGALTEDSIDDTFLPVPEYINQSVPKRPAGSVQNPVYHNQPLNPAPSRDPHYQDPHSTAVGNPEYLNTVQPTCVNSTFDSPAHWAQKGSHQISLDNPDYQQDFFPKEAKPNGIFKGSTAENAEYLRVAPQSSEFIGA
Description: This assay measures the in vitro kinase activity of EGFR using ELISA.
1. Corning 96-well Elisa plates (Corning Catalog No. 25805-96).
2. SUMO1 monoclonal anti-EGFR antibody (Biochemistry Lab, SUGEN, Inc.).
3. PBS (Dulbecco's Phosphate-Buffered Saline, Gibco Catalog No. 450-1300EB).
6. A431 cell lysate (Screening Lab, SUGEN, Inc.)
9. Adenosine-5′-triphosphate (ATP, from Equine muscle, Sigma Cat. No. A-5394).
Prepare a 1.0 mM solution in dH2O. This reagent should be made up immediately prior to use and kept on ice.
Prepare a 1.0 M stock solution in dH2O.
11. ATP/MnCl2 phosphorylation mix
This reagent should be prepared immediately before use and kept on ice
12. NUNC 96-well V bottom polypropylene plates (Applied Scientific Cat. No. AS-72092).
13. Ethylenediaminetetraacetic acid (EDTA)
Prepare 200 mM working solution in dH2O. Adjust to pH 8.0 with 10 N NaOH.
14. Rabbit polyclonal anti-phosphotyrosine serum (Biochemistry Lab, SUGEN, Inc.)
15. Goat anti-rabbit IgG peroxidase conjugate (Biosource Cat. No. ALI0404)
16. ABTS (2,2′-azino-bis(3-ethylbenzthiazoline-6-sulfonic acid), Sigma Cat. No. A-1888).
Mix first two ingredients in about 900 ml dH2O, adjust pH to 4.0 with phosphoric acid. Add ABTS, cover, let sit about 0.5 hr., filter. The solution should be kept in the dark at 4° C. until ready to use.
17. Hydrogen peroxide 30% solution (Fisher Cat. No. H325)
Mix 15 ml ABTS solution and 2.0 μl H2O2. Prepare 5 minutes before use.
1. Coat Corning 96 well ELISA plates with 0.5 μg SUMO1 in 100 μl PBS per well, store overnight at 4° C.
2. Remove unbound SUMO1 from wells by inverting plate to remove liquid. Wash 1× with dH2O. Pat the plate on a paper towel to remove excess liquid.
3. Add 150 μl of Blocking Buffer to each well. Incubate for 30 min. at room temperature with shaking.
4. Wash plate 3× with deionized water, then once with TBST. Pat plate on a paper towel to remove excess liquid and bubbles.
5. Dilute lysate in PBS (7 μg lysate/100 μl PBS)
6. Add 100 μl of diluted lysate to each well. Shake at room temperature for 60 min.
7. Wash plates as described in 4, above.
8. Add 120 μl TBS to ELISA plate containing captured EGFR.
9. Dilute test compound 1:10 in TBS in 96-well polypropylene plates (ie. 10 μl compound+90 μl TBS).
10. Add 13.5 μl diluted test compound to ELISA plate.
11. Incubate for 30 minutes while shaking at room temperature.
13. After 5 minutes, stop reaction by adding 16.5 μl of 200 mM EDTA (pH 8.0) to each well, shaking continuously. After the EDTA has been added, shake for 1 min.
14. Wash 4× with deionized water, twice with TBST.
15. Add 100 μl anti-phosphotyrosine (1:3000 dilution in TBST) per well. Incubate 30-45 min. at room temperature, with shaking.
16. Wash as described in 4, above.
17. Add 100 μl Biosource Goat anti-rabbit IgG peroxidase conjugate (1:2000 dilution in TBST) to each well. Incubate 30 min. at room temperature, with shaking.
18. Wash as described in 4, above.
19. Add 100 μl of ABTS/H2O2 solution to each well.
20. Incubate 5 to 10 minutes with shaking. Remove any bubbles.
21. If necessary stop reaction with the addition of 100 μl 0.2 M HCl per well.
22. Read assay on Dynatech MR7000 ELISA reader. Test Filter: 410 nM Reference Filter: 630 nM

SMILES	PDGF Kinase % Inhibition (P.119) (PDGF-R)	Biochem EGFR % Inhibition (P.167) (EGFR)
CSc1ccc(C=C2C(=O)Nc3c(Br)cc(Br)c(C)c32)cc1 [10729/H04]	−5.6%	−4.4%
Cc1ccsc1C=C1C(=O)Nc2c(Br)cc(Br)c(C)c21 [10729/H05]	−27.6%	−4.4%
Cc1c(Br)cc(Br)c2c1C(=Cc1cccc(Oc3ccccc3)c1)C(=O)N2 [10729/H06]	−12.1%	−10.3%
Cc1c(Br)cc(Br)c2c1C(=Cc1ccccn1)C(=O)N2 [10729/H07]	−43.1%	30.0%
Cc1c(Br)cc(Br)c2c1C(=Cc1cccnc1)C(=O)N2 [10729/H08]	−1.5%	8.7%
Cc1c(Br)cc(Br)c2c1C(=Cc1ccncc1)C(=O)N2 [10729/H09]	0.1%	8.0%
Cc1c(Br)cc(Br)c2c1C(=Cc1ccc(N3CCCC3)cc1)C(=O)N2 [10729/H10]	−1.5%	2.1%
Cc1c(Br)cc(Br)c2c1C(=CC1C=CCCC1)C(=O)N2 (stereo not shown) [10729/H11]	5.0%	0.8%
COc1ccc(C=C2C(=O)Nc3c(Br)cc(Br)c(C)c32)c(OC)c1OC [10730/H02]	1.0%	12.6%
COc1cc(OC)c(OC)cc1C=C1C(=O)Nc2c(Br)cc(Br)c(C)c21 [10730/H03]	−11.7%	−3.4%
COc1cc(C=C2C(=O)Nc3c(Br)cc(Br)c(C)c32)cc(OC)c1OC [10730/H04]	−1.2%	−29.5%
CC(=O)n1cc(C=C2C(=O)Nc3c(Br)cc(Br)c(C)c32)c2ccccc21 [10730/H05]	22.1%	−20.1%
Cc1c(Br)cc(Br)c2c1C(=Cc1ccc(-c3ccccc3Cl)o1)C(=O)N2 [10730/H07]	0.6%	−3.2%
Cc1c(Br)cc(Br)c2c1C(=Cc1cc3ccccc3nc1Cl)C(=O)N2 [10730/H08]	6.3%	−15.8%
COC1CC(C=C2C(=O)Nc3c(Br)cc(Br)c(C)c32)C(OC)O1 (stereo not shown) [10730/H10]	23.0%	1.7%
Cc1cc(C=C2C(=O)Nc3c(Br)cc(Br)c(C)c32)oc1C [10730/H11]	9.4%	26.4%

SMILES	PDGF Kinase % Inhibition (P.119) (PDGF-R)	Biochem EGFR % Inhibition (P.167) (EGFR)
CCn1c2ccccc2c2cc(C=C3C(=O)Nc4c(Br)cc(Br)c(C)c43)ccc21 [10731/H02]	−18.7%	−9.5%
Cc1cc2occ(C=C3C(=O)Nc4c(Br)cc(Br)c(C)c43)c(=O)c2cc1C [10731/H03]	1.8%	−1.5%
C=C(C)C1CC=C(C=C2C(=O)Nc3c(Br)cc(Br)c(C)c32)CC1 (stereo not shown) [10731/H04]	−15.8%	−1.7%
Cc1c(Br)cc(Br)c2c1C(=Cc1coc3ccc(C(C)C)cc3c1=O)C(=O)N2 [10731/H05]	−1.6%	−3.6%
Cc1ccc2occ(C=C3C(=O)Nc4c(Br)cc(Br)c(C)c43)c(=O)c2c1 [10731/H06]	−5.4%	−7.8%
Cc1c(Br)cc(Br)c2c1C(=Cc1coc3ccc([N+](=O)[O-])cc3c1=O)C(=O)N2 [10731/H07]	36.5%	−1.7%
Cc1c(Br)cc(Br)c2c1C(=Cc1c[nH]c(=O)[nH]c1=O)C(=O)N2 [10731/H08]	−10.1%	−0.5%
COc1ccc2[nH]cc(C=C3C(=O)Nc4c(Br)cc(Br)c(C)c43)c2c1 [10731/H09]	−5.4%	−2.7%
Cc1c(Br)cc(Br)c2c1C(=C1C(=O)N(C)c3ccccc31)C(=O)N2 [10731/H10]	40.3%	3.5%
Cc1c(Br)cc(Br)c2c1C(=CC(c1cccs1)C(F)(F)F)C(=O)N2 (stereo not shown) [10732/H02]	6.8%	13.0%
COc1c(C(C)C)cc(C=C2C(=O)Nc3c(Br)cc(Br)c(C)c32)cc1C(C)C [10732/H03]	−1.8%	1.4%
Cc1c(Br)cc(Br)c2c1C(=Cc1cc(C(C)C)c(Oc3ccccc3)c(C(C)C)c1)C(=O)N2 [10732/H04]	14.4%	−0.7%
COc1ccc(C=C2C(=O)Nc3c(Br)cc(Br)c(C)c32)cc1C(C)(C)C [10732/H05]	−25.6%	−2.9%
Cc1c(Br)cc(Br)c2c1C(=Cc1ccc(OCc3ccccc3)c(C(C)(C)C)c1)C(=O)N2 [10732/H06]	−18.0%	−6.9%
COc1c(Br)cc(C=C2C(=O)Nc3c(Br)cc(Br)c(C)c32)cc1C(C)(C)C [10732/H07]	−22.0%	−15.3%
Cc1c(Br)cc(Br)c2c1C(=Cc1cc(Br)c(OCc3ccccc3)c(C(C)(C)C)c1)C(=O)N2 [10732/H08]	7.8%	−14.0%
